Inhibition, IC50 and inhibition data for nine molecules are collected here from ChEMBL document CHEMBL1144881, “3,6-dibromocarbazole piperazine derivatives of 2-propanol as first inhibitors of cytochrome c release via Bax channel modulation” (J Med Chem, 2003).

Assay [1] concerns HeLa. Nature of the assay: In vitro inhibition of cytochrome C release in isolated mitochondria by the compound was determined. It counts as functional, Homo sapiens. Further details: concentration or dose not given beside the values.
The target of assay [2] is Apoptosis regulator BAX (Homo sapiens) (UniProt Q07812). Nature of the assay: cells.
Assay [3] has as its system HeLa. Nature of the assay: cells. It counts as functional. The note with it: Homo sapiens.
Description: In vitro inhibition of cytochrome C release in isolated mitochondria by the compound at a concentration of 10 uM was determined
The subject of assay [4] is HeLa. Nature of the assay: cells. Type of assay: functional. The note with it: Homo sapiens. This is another data set of the same source.
Description: In vitro inhibition of cytochrome C release in isolated mitochondria by the compound at a concentration of 20 uM was determined
Assay [5] has as its system HeLa. Nature of the assay: cells. Type of assay: functional. The note with it: Homo sapiens. The source holds these as a separate data set.

Molecule `OC(CN1CCN(Cc2ccc(F)cc2)CC1)Cn1c2ccc(Br)cc2c2cc(Br)ccc21` (stereo not given) gave an Inhibition with HeLa [1] of 65%. For the same molecule, the concentration for half-maximal inhibition (IC50) in assay [2] was 480 nM.
For `OC(CN1CCN(c2ccc(F)cc2)CC1)Cn1c2ccc(Br)cc2c2cc(Br)ccc21` (stereo not given) the same measures were 15% and 2380 nM.
In the assay on HeLa [3], `FC(F)(CN1CCNCC1)Cn1c2ccc(Br)cc2c2cc(Br)ccc21` came in with an inhibition at 10 µM of 83%. The molecule further returned an inhibition at 20 µM with HeLa [4] of 96%. Also, the inhibition at 5 µM with HeLa [5] was 61%. The same molecule came in with a concentration for half-maximal inhibition (IC50) in assay [2] of 680 nM.
In the assay on HeLa [1], `O=C(CN1CCNCC1)Cn1c2ccc(Br)cc2c2cc(Br)ccc21` registered an Inhibition of 71%. In assay [2], this molecule yielded an IC50 of 290 nM.
With `OC(CN1CCN(CCN2CCOCC2)CC1)Cn1c2ccc(Br)cc2c2cc(Br)ccc21` (stereo not given), at 10 µM the inhibition in the assay on HeLa [3] was 74%. In addition, in the assay with HeLa [4], 20 µM produced 95% inhibition. Besides, the inhibition at 5 µM in the assay on HeLa [5] stood at 21%. The molecule also showed an IC50 in assay [2] of 470 nM.
Consider `NC(CN1CCNCC1)Cn1c2ccc(Br)cc2c2cc(Br)ccc21` (stereo not given), for which the Inhibition in the assay with HeLa [1] is on record as 71%. Also, the IC50 in assay [2] was found to be 960 nM.
`OC(CN1CCNCC1)Cn1c2ccc(Br)cc2c2cc(Br)ccc21` (stereo not given) displayed an inhibition at 10 µM in the assay on HeLa [3] of 94%. For the same molecule, the inhibition at 20 µM in the assay with HeLa [4] was 99%. Further, testing at 5 µM with HeLa [5] gave an inhibition of 77%.
In turn, `O=C(Nc1ccc(F)cc1)N1CCN(CC(O)Cn2c3ccc(Br)cc3c3cc(Br)ccc32)CC1` (stereo not given) displayed an Inhibition in the assay on HeLa [1] of 15%. Also, the IC50 in assay [2] is 1270 nM.
`COc1ccc(CN2CCN(CC(O)Cn3c4ccc(Br)cc4c4cc(Br)ccc43)CC2)cc1` (stereo not given): the inhibition at 10 µM in the assay with HeLa [3] was 82%. This molecule returned an inhibition at 20 µM with HeLa [4] of 99%. The inhibition at 5 µM in the assay with HeLa [5] was found to be 61%. The IC50 in assay [2] came out at 370 nM.
